US20230085307A1, “PYRIDAZINONE COMPOUND AND HERBICIDE” (NISSAN CHEMICAL CORPORATION, priority 2019, published 2023)

How the values were obtained:
[1] = system: late watergrass; experiment: Test Example 1: herbicidal activity, application before weed generation under submerged conditions (Table 16, symbol A); assay type: in vivo, late watergrass (Echinochloa oryzicola); conditions: 320 g/ha applied herbicide
Outline: (§1)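 Submerged Wagner pots (alluvial soil, 4 cm water) sown with weed seeds and planted with 2.5-leaf rice seedlings; emulsifiable concentrate diluted in water applied to water surface on sowing day. Held in greenhouse at 25-30 °C; injury scored 0-5 by herbicidal rate after three weeks.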

[2] = system: Japanese bulrush; experiment: Test Example 1: herbicidal activity, application before weed generation under submerged conditions (Table 16, symbol B); assay type: in vivo, Japanese bulrush (Schoenoplectus juncoides); conditions: 320 g/ha applied herbicide
Outline: as §1

[3] = system: oval-leafed pondweed; experiment: Test Example 1: herbicidal activity, application before weed generation under submerged conditions (Table 16, symbol C); assay type: in vivo, oval-leafed pondweed (Monochoria vaginalis); conditions: 320 g/ha applied herbicide
Outline: as §1

[4] = system: barnyard grass; experiment: Test Example 3: herbicidal effect by foliage application, Wagner pot (Table 18, symbol H); assay type: in vivo, barnyard grass (Echinochloa crus-galli)
Outline: (§2)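 Plants were sown in alluvial soil held under 0.1–0.5 cm standing water and grown 14 days in a greenhouse at 25–30 °C. An emulsifiable formulation, water-diluted to the set dose, was then sprayed onto the foliage, and effects were scored three weeks later using previously defined criteria.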

[5] = system: Chinese sprangletop; experiment: Test Example 3: herbicidal effect by foliage application, Wagner pot (Table 18, symbol D); assay type: in vivo, chinese sprangletop (Leptochloa chinensis)
Outline: as §2

[6] = system: rice flat sedge; experiment: Test Example 3: herbicidal effect by foliage application, Wagner pot (Table 18, symbol E); assay type: in vivo, rice flat sedge (Cyperus iria)
Outline: as §2

[7] = system: southern crabgrass; experiment: Test Example 5: herbicidal effect by foliage application, plastic box (Table 20, symbol F); assay type: in vivo, southern crabgrass (Digitaria ciliaris); conditions: foliage application, 320 g/ha, evaluated three weeks after application
Outline: (§3)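 Foliar spray test: emulsion formulation diluted in water to a set application rate, sprayed onto 14-day-old plants raised in diluvial soil at 25° C to 30° C under glass. Both herbicidal effect and crop effect rated visually three weeks later.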

[8] = system: green foxtail; experiment: Test Example 5: herbicidal effect by foliage application, plastic box (Table 20, symbol G); assay type: in vivo, green foxtail (Setaria viridis); conditions: foliage application, 320 g/ha, evaluated three weeks after application
Outline: as §3

[9] = system: barnyard grass; experiment: Test Example 5: herbicidal effect by foliage application, plastic box (Table 20, symbol H); assay type: in vivo, barnyard grass (Echinochloa crus-galli); conditions: foliage application, 320 g/ha, evaluated three weeks after application
Outline: as §3

[10] = system: wild oat; experiment: Test Example 5: herbicidal effect by foliage application, plastic box (Table 20, symbol I); assay type: in vivo, wild oat (Avena fatua); conditions: foliage application, 320 g/ha, evaluated three weeks after application
Outline: as §3

[11] = system: blackgrass; experiment: Test Example 5: herbicidal effect by foliage application, plastic box (Table 20, symbol J); assay type: in vivo, blackgrass (Alopecurus myosuroides); conditions: foliage application, 320 g/ha, evaluated three weeks after application
Outline: as §3

[12] = system: Italian ryegrass; experiment: Test Example 5: herbicidal effect by foliage application, plastic box (Table 20, symbol K); assay type: in vivo, Italian ryegrass (Lolium multiflorum); conditions: foliage application, 320 g/ha, evaluated three weeks after application
Outline: as §3

[13] = system: windgrass; experiment: Test Example 5: herbicidal effect by foliage application, plastic box (Table 20, symbol L); assay type: in vivo, windgrass (Apera spica-venti); conditions: foliage application, 320 g/ha, evaluated three weeks after application
Outline: as §3

[14] = system: velvetleaf; experiment: Test Example 5: herbicidal effect by foliage application, plastic box (Table 20, symbol M); assay type: in vivo, velvetleaf (Abutilon theophrasti); conditions: foliage application, 320 g/ha, evaluated three weeks after application
Outline: as §3

[15] = system: redroot pigweed; experiment: Test Example 5: herbicidal effect by foliage application, plastic box (Table 20, symbol N); assay type: in vivo, redroot pigweed (Amaranthus retroflexus); conditions: foliage application, 320 g/ha, evaluated three weeks after application
Outline: as §3

[16] = system: lambsquarters; experiment: Test Example 5: herbicidal effect by foliage application, plastic box (Table 20, symbol O); assay type: in vivo, lambsquarters (Chenopodium album); conditions: foliage application, 320 g/ha, evaluated three weeks after application
Outline: as §3

[17] = system: chickweed; experiment: Test Example 5: herbicidal effect by foliage application, plastic box (Table 20, symbol P); assay type: in vivo, common chickweed (Stellaria media); conditions: foliage application, 320 g/ha, evaluated three weeks after application
Outline: as §3

[18] = system: persian speedwell; experiment: Test Example 5: herbicidal effect by foliage application, plastic box (Table 20, symbol R); assay type: in vivo, Persian speedwell (Veronica persica); conditions: foliage application, 320 g/ha, evaluated three weeks after application
Outline: as §3

[19] = amount of applied herbicide 320 g/ha

| Compound | Herbicidal effect on A: late watergrass (grade 0-5) [1] | Herbicidal effect on B: Japanese bulrush (grade 0-5) [2] | Herbicidal effect on C: oval-leafed pondweed (grade 0-5) [3] | herbicidal effect on F: southern crabgrass [7] | herbicidal effect on G: green foxtail [8] | herbicidal effect on H: barnyard grass [9] | herbicidal effect on I: wild oat [10] | herbicidal effect on J: blackgrass [11] | herbicidal effect on K: Italian ryegrass [12] | herbicidal effect on L: windgrass [13] | herbicidal effect on M: velvetleaf [14] | herbicidal effect on N: redroot pigweed [15] | herbicidal effect on O: lambsquarters [16] | herbicidal effect on P: chickweed [17] | herbicidal effect on R: persian speedwell [18] | further results |
| --- | --- | --- | --- | --- | --- | --- | --- | --- | --- | --- | --- | --- | --- | --- | --- | --- |
| CCCC(=O)Oc1c(C)nn(C)c(=O)c1-c1c(-c2ccc(Oc3ccccc3)cc2)sc2ccc(F)cc12 [2-073] | 3 (Herbicidal rate of 40% or more and less than 70%) | 0 (Herbicidal rate of 5% or less (almost no effect)) | 0 (Herbicidal rate of 5% or less (almost no effect)) | 0 (Herbicidal rate of 5% or less (almost no effect)) | 2 (Herbicidal rate of 20% or more and less than 40%) | 1 (Herbicidal rate of 5% or more and less than 20%) | 0 (Herbicidal rate of 5% or less (almost no effect)) | 0 (Herbicidal rate of 5% or less (almost no effect)) | 0 (Herbicidal rate of 5% or less (almost no effect)) | 0 (Herbicidal rate of 5% or less (almost no effect)) | 3 (Herbicidal rate of 40% or more and less than 70%) | 3 (Herbicidal rate of 40% or more and less than 70%) | 3 (Herbicidal rate of 40% or more and less than 70%) | 5 (Herbicidal rate of 90% or more (almost completely withered)) | 4 (Herbicidal rate of 70% or more and less than 90%) | herbicidal effect on H (barnyard grass), rating 0-5 ([4]; 320 g/ha): 4 (Herbicidal rate of 70% or more and less than 90%); herbicidal effect on D (Chinese sprangletop), rating 0-5 ([5]; 320 g/ha): 3 (Herbicidal rate of 40% or more and less than 70%); herbicidal effect on E (rice flat sedge), rating 0-5 ([6]; 320 g/ha): 3 (Herbicidal rate of 40% or more and less than 70%) |
| COc1ccc(Br)cc1-c1sc2ccc(Br)cc2c1-c1c(O)c(C)nn(C)c1=O [2-129] | 5 (Herbicidal rate of 90% or more (almost completely withered)) | 0 (Herbicidal rate of 5% or less (almost no effect)) | 0 (Herbicidal rate of 5% or less (almost no effect)) | 0 (Herbicidal rate of 5% or less (almost no effect)) | 0 (Herbicidal rate of 5% or less (almost no effect)) | 0 (Herbicidal rate of 5% or less (almost no effect)) | 0 (Herbicidal rate of 5% or less (almost no effect)) | 0 (Herbicidal rate of 5% or less (almost no effect)) | 0 (Herbicidal rate of 5% or less (almost no effect)) | 0 (Herbicidal rate of 5% or less (almost no effect)) | 0 (Herbicidal rate of 5% or less (almost no effect)) | 0 (Herbicidal rate of 5% or less (almost no effect)) | 2 (Herbicidal rate of 20% or more and less than 40%) | 0 (Herbicidal rate of 5% or less (almost no effect)) | 0 (Herbicidal rate of 5% or less (almost no effect)) | herbicidal effect on H: barnyard grass [4, 19]: 3 (Herbicidal rate of 40% or more and less than 70%); herbicidal effect on D: Chinese sprangletop [5, 19]: 0 (Herbicidal rate of 5% or less (almost no effect)); herbicidal effect on E: rice flat sedge [6, 19]: 0 (Herbicidal rate of 5% or less (almost no effect)) |
